The text below walks through data of patent publication US6680067B2 (priority 2001, dated 2004).

Structures can show the parent of a compound that is named as a salt.

For data set [1] the following is noted: Shafer et al. 1991; cited from earlier work.
A further data set has as its system Sprague-Dawley rats. As to the kind of experiment: rat cold ethanol tail-flick test (analgesic effect). It counts as in vivo. The note with it: intramuscular, 25 μM/kg, FIG. 5.
Data set [2] in a line: pharmacokinetics of nalbuphine in beagle plasma after intramuscular injection. The note with it: for k01: hydrochloride.
Data set [3] in a line: pharmacokinetics of nalbuphine in rat plasma after intramuscular injection. The note with it: for k01: hydrochloride. On the procedure:
Each group consisted of 6 rats and each rat was injected once intramuscularly on the rear leg.

Setting [4] is: beagle, dog, plasma, im, 5 mg/kg.
Setting [5] is: beagles, i.m., dose 5 mg/kg, n = 5, mean ± S.E.
Where [6] appears, read: male, Sprague-Dawley, rat, plasma, im, 24 mg/kg.

In the case of `CN1CC[C@]23c4c5ccc(O)c4O[C@H]2[C@@H](O)C=C[C@H]3[C@H]1C5` [morphine], the “dose needed to elicit the same analgesic effect” value in data set [1] is listed as 10 mg.
Turning to `Oc1ccc2c(c1)[C@@]13CCCC[C@@]1(O)[C@@H](C2)N(CC1CCC1)CC3` [butorphanol], in data set [1], the “dose needed to elicit the same analgesic effect” value is recorded as 2 mg.
In the case of `Oc1ccc2c3c1O[C@H]1[C@@H](O)CC[C@@]4(O)[C@@H](C2)N(CC2CCC2)CC[C@]314` [Nalbuphine-HCl, nalbuphine hydrochloride], in the data set on Sprague-Dawley rats, the “10% analgesic effect (duration)” value came to 2.7 h. Moreover, the “50% analgesic effect (duration)” value in the data set on Sprague-Dawley rats worked out at 1.2 h. Further, the AUC in data set [2] (setting [4]) was determined as 1870 ± 203 ng·h/mL; in data set [3] (setting [6]) it was 8040 ± 2880 ng·h/mL. Further, the CL/F in data set [2] (setting [4]) is 46.7 mL/min/kg; in data set [3] (setting [6]), 58.3 mL/min/kg. In addition, the Cmax was 2460 ± 755 ng/mL in data set [2] (setting [4]) and 2230 ± 669 ng/mL in data set [3] (setting [6]). The MRT amounted to 2.2 ± 0.5 h in data set [2] (setting [4]) and 3 ± 1.2 h in data set [3] (setting [6]). In addition, the results for the Tmax in data set [2] (setting [4]) and in data set [3] (setting [6]) were 5.4 ± 2.4 min and 27 ± 14.4 min, respectively. The half-life is 7.2 ± 4.2 min in data set [2] (beagle, dog, plasma, im, 5 mg/kg, t1/2, k01, beagles, n = 5, mean ± S.E.); 7.8 ± 6.6 min in data set [2] (beagle, dog, plasma, im, 5 mg/kg, t1/2, α, beagles, n = 5, mean ± S.E.); 168 ± 54 min in data set [2] (beagle, dog, plasma, im, 5 mg/kg, t1/2, β (elimination half-life), beagles, n = 5, mean ± S.E.); 8.4 ± 9 min in data set [3] (male, Sprague-Dawley, rat, plasma, im, 24 mg/kg, t1/2, k01, Sprague-Dawley rats, 24 mg/kg (FIG. 7), means ± S.E.); 114 ± 48 min in data set [3] (male, Sprague-Dawley, rat, plasma, im, 24 mg/kg, t1/2, β (elimination half-life), Sprague-Dawley rats, 24 mg/kg (FIG. 7), means ± S.E.). Moreover, in data set [2] (setting [5]), the α is 67.9 ± 29.3 h⁻¹. Further, the β in data set [2] (setting [5]) was determined as 0.42 ± 0.15 h⁻¹. In addition, the k01 in data set [2] (beagles, i.m., dose 5 mg/kg, n = 5, mean ± S.E., listed as Nal-HCl) amounted to 82.5 ± 43.9 h⁻¹; in data set [2] (beagles, i.m., dose 5 mg/kg, n = 5, mean ± S.E., listed as Nalbuphine HCl), 82.5 ± 43.9 h⁻¹; in data set [2] (beagles, i.m., dose 5 mg/kg, n = 5, mean ± S.E., listed as nalbuphine hydrochloride), 82.5 h⁻¹; in data set [3] (Sprague-Dawley rats, i.m., 24 mg/kg (FIG. 7), means ± S.E., 24 mg/kg), 12.1 ± 14.1 h⁻¹; in data set [3] (Sprague-Dawley rats, i.m., 24 mg/kg (FIG. 7), means ± S.E., listed as nalbuphine hydrochloride, 24 mg/kg) it was 12.1 ± 14.1 h⁻¹. The “β or k10” value in data set [3] (Sprague-Dawley rats, i.m., 24 mg/kg (FIG. 7), means ± S.E.) is 0.43 ± 0.21 h⁻¹.
